The record followed here is patent US11046714B2, “2,2-difluorodioxolo A2A receptor antagonists” (Merck Sharp & Dohme Corp., priority 2013, dated 2021).

One may read the Ki as a dissociation constant, usually derived from enzyme kinetics or from competition with a known ligand. Low values mean a stronger hold on the target, high ones a looser hold on the target.

This assay addresses human A2A receptor (Homo sapiens (Human), UniProt P29274). Nature of the assay: competition binding assay using Scintillation Proximity technology. The note with it: membranes from CHO-K1 cells expressing the human A2a receptor; 2.0 nM tritiated compound; Cheng-Prusoff. Here is the method:
The utility of the compounds in accordance with the present invention as A2A receptor antagonists may be readily determined without undue experimentation by methodologies well known in the art, including by a competition binding assay using Scintillation Proximity technology. Briefly, membranes from CHO-K1 cells expressing the human A2A receptor are incubated with a test compound at various concentrations, e.g., ranging from 3000 nM to 0.15 nM, in a reaction mixture also containing a tritiated form of 5-amino-7-[2-phenethyl]-2-(furan-2-yl)-7H-pyrazolo[4,3-e][1,2,4]triazolo[1,5-c]pyrimidine (the tritiated compound) and wheatgerm agglutin-coated yttrium silicate SPA beads at room temperature. The beads are then allowed to settle to the bottom of the wells, after which the membrane-associated radioactivity is determined by scintillation counting in a microplate reader. Ki values can be determined using the Cheng-Prusoff equation.
Thus, 1.0 μg of membranes from CHO-K1 cells expressing the human A2a receptor were incubated with a compound of the invention at concentrations ranging from 3000 nM to 0.15 nM in a reaction mixture also containing 2.0 nM of a tritiated form of 5-amino-7-[2-phenethyl]-2-(furan-2-yl)-7H-pyrazolo[4,3-e][1,2,4]triazolo[1,5-c]pyrimidine (the tritiated compound) and 100 μg of wheatgerm agglutin-coated yttrium silicate SPA beads for one hour at room temperature with agitation. The beads were then allowed to settle to the bottom of the wells for 1 hr, after which the membrane-associated radioactivity was determined by scintillation counting in a TopCount microplate reader. Ki values were determined using the Cheng-Prusoff equation.
Summary of Materials and Methods Used in A2a Activity Determination:
• Membranes from CHO-K1 cells expressing the human Adenosine2A receptor (Perkin-Elmer #RBHA2AM400UA). • The tritiated compound was prepared according to published methods. • Wheatgerm agglutinin-coated yttrium silicate SPA beads (GE Healthcare #RPNQ0023). Dilute to 25 mg/ml in Assay Buffer. • Assay Buffer: Dulbecco's calcium and magnesium free phosphate buffered saline+10 mM MgCl2 • Adenosine deaminase (ADA) from calf intestine, 10 mg/2 ml (Roche #10 102 105 001). • DMSO • A2a antagonist standard (9-chloro-1-(2-furanyl)-[1,2,4]triazolo[1,5-c]quinazolin-5-amine from Tocris Bioscience) Compound Dilution • Make eight 1:3 serial dilutions in 100% DMSO from a 3 mM compound stock. • Transfer 50 nL of compound into a 384-well OptiPlate (Perkin Elmer). • Typically, final concentrations of compound used in the assay ranged from 3000 nM to 0.152 nM. Radioisotope • Dilute a solution of the tritiated compound to 5.0 nM in assay buffer. This is a 2.5× solution. The final concentration in the assay is 2.0 nM. Calculate the concentration by counting two 5 μL aliquots. Membrane Preparation • Use 1.0 μg of membrane/well. Dilute membranes to 33 μg/mL in assay buffer. Treat with 20 μg/mL ADA for 15 minutes at room temperature to degrade endogenous adenosine. Membrane-Bead Mixture • Use 100 μg/well wheatgerm agglutinin-coated yttrium silicate SPA beads. • Mix ADA-treated membranes and SPA beads together for 30 min prior to assay. Assay Assembly • To the Perkin-Elmer Optiplate-384 containing the compound titration add 20 μL of 2.5× solution of the tritiated compound and 30 μL of the membrane-bead mixture. Incubate for one hour at room temperature with agitation. • Include total binding (assay buffer+1% DMSO) and non-specific binding (CGS 15943, 1 μM) wells. Counting • Allow the beads to settle for one hour. • Count in TopCount. Calculations • A curve fitting program (i.e., Prism, Activity Base, Chemcart) is used to determine the EC50. The Ki value is calculated using the Cheng-Prusoff equation. Ki=EC50/(1+(radioligand concentration/Kd))

Chain of human A2A receptor (P29274 whole entry): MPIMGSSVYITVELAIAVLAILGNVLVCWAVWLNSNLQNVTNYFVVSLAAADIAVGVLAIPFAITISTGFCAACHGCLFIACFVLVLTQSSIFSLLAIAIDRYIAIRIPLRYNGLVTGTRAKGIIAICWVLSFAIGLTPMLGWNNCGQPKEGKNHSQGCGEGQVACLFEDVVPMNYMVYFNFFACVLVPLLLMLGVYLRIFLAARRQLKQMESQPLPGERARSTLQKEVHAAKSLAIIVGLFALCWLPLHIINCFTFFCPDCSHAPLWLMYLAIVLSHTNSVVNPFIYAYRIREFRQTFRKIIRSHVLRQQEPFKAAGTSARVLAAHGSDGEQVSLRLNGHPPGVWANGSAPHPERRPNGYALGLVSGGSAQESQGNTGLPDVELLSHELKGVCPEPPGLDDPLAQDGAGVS

The compound `C[C@H](Cc1nc2c3ccc4c(c3nc(N)n2n1)OC(F)(F)O4)N1CCc2ccncc21` [Example 76, 8-[(2R)-2-(2,3-dihydro-1H-pyrrolo [2,3-c]pyridin-1-yl)propyl]-2,2-difluoro[1,3]dioxolo[4,5-h][1,2,4] triazolo[1,5-c]quinazolin-5-amine] registered a Ki of 1.8 nM.

The compound `Nc1nc2c3c(ccc2c2nc(CCN4CCC(F)(F)CC4)nn12)OC(F)(F)O3` [Example 30, 8-[2-(4,4-difluoropiperidin-1-yl)ethyl]-2,2-difluoro[1,3] dioxolo[4,5-h][1,2,4]triazolo [1,5-c]quinazolin-5-amine] gave a Ki of 2.6 nM.

For the compound `Nc1nc2c3c(ccc2c2nc(CCN4CC[C@@H](c5ccccc5)C4)nn12)OC(F)(F)O3` [Example 36, 2,2-difluoro-8-{2-[(3S)-3-phenylpyrrolidin-1-yl]ethyl}[1,3]dioxolo[4,5-h][1,2,4]triazolo[1,5-c]quinazolin-5-amine], the Ki was 39 nM.

Regarding `Nc1nc2c3c(ccc2c2nc(CN4C[C@H](F)[C@@H](F)C4)nn12)OC(F)(F)O3` [Example 115, 8-{[(3S,4S)-3,4-difluoropyrrolidin-1-yl]methyl}-2,2-difluoro[1,3] dioxolo[4,5-h][1,2,4]triazolo[1,5-c]quinazolin-5-amine], the Ki amounted to 4.4 nM.

Compound `CC(Cc1nc2c3ccc4c(c3nc(N)n2n1)OC(F)(F)O4)N1CC(F)(F)C1` (single isomer, unassigned) [Example 94, (R or S)-8-[2-(3,3-difluoroazetidin-1-yl)propyl]-2,2-difluoro[1,3] dioxolo[4,5-h][1,2,4]triazolo[1,5-c] quinazolin-5-amine] came in with a Ki of 4.1 nM.

For `Nc1nc2c3c(ccc2c2nc(CCN4CC(F)C4)nn12)OC(F)(F)O3` [Example 15, 2,2-difluoro-8-[2-(3-fluoroazetidin-1-yl)ethyl] [1,3]dioxolo[4,5-h][1,2,4] triazolo[1,5-c]quinazolin-5-amine], the Ki turned out to be 2.5 nM.

`Nc1nc2c3c(ccc2c2nc(Cc4cccnc4N4CC[C@@H](c5ccc(F)cc5)C4)nn12)OC(F)(F)O3` [Example 4, (S)-2,2-difluoro-8-((2-(3-(4-fluorophenyl)pyrrolidin-1-yl)pyridin-3-yl)methyl)-[1,3]dioxolo[4,5-h][1,2,4]triazolo[1,5-c]quinazolin-5-amine] showed a Ki of 8.3 nM.

The compound `Nc1nc2c3c(ccc2c2nc(Cc4cccnc4N4CC[C@@H](c5ccc(C(F)(F)F)cc5)C4)nn12)OC(F)(F)O3` [Example 5, (S)-2,2-difluoro-8-((2-(3-(4-(trifluoromethyl)phenyl)pyrrolidin-1-yl)pyridin-3-yl)methyl)-[1,3]dioxolo[4,5-h][1,2,4]triazolo[1,5-c]quinazolin-5-amine] showed a Ki of 15 nM.

For `CCc1nnc2n1CCN(Cc1nc3c4ccc5c(c4nc(N)n3n1)OC(F)(F)O5)C2` [Example 122, 8-[(3-ethyl-5,6-dihydro[1,2,4]triazolo [4,3-a]pyrazin-7(8H)-yl)methyl]-2,2-difluoro[1,3]dioxolo[4,5-h][1,2,4] triazolo[1,5-c]quinazolin-5-amine], the inhibition constant Ki stood at 110 nM.

On to `CCC1(F)CN(CCc2nc3c4ccc5c(c4nc(N)n3n2)OC(F)(F)O5)C1` [Example 17, 8-[2-(3-ethyl-3-fluoroazetidin-1-yl)ethyl]-2,2-difluoro[1,3] dioxolo[4,5-h][1,2,4]triazolo [1,5-c]quinazolin-5-amine], for which the Ki came to 3.5 nM.

`COC(=O)C(Cc1nc2c3ccc4c(c3nc(N)n2n1)OC(F)(F)O4)C(=O)OC` [Example 148, dimethyl [(5-amino-2,2-difluoro[1,3]dioxolo[4,5-h][1,2,4]triazolo[1,5-c]quinazolin-8-yl)methyl]propanedioate] came in with a Ki of 2 nM.

Take `CC(c1nc2c3ccc4c(c3nc(N)n2n1)OC(F)(F)O4)N1C[C@H](F)[C@@H](F)C1` (single isomer, unassigned) [Example 133, (R or S)-8-{1-[(3S,4S)-3,4-difluoropyrrolidin-1-yl]ethyl}-2,2-difluoro[1,3]dioxolo[4,5-h][1,2,4]triazolo[1,5-c]quinazolin-5-amine]: the Ki was determined as 64 nM.

In turn, `Nc1nc2c3c(ccc2c2nc(CCN4CC(F)(F)C4)nn12)OC(F)(F)O3` [Example 19, 8-[2-(3,3-difluoroazetidin-1-yl)ethyl]-2,2-difluoro[1,3] dioxolo[4,5-h][1,2,4]triazolo [1,5-c]quinazolin-5-amine] displayed an inhibition constant (Ki) of 3 nM.

Compound `Nc1nc2c3c(ccc2c2nc(CCN4CCN(CC5CC5)C(=O)C4)nn12)OC(F)(F)O3` [Example 48, 4-[2-(5-amino-2,2-difluoro[1,3]dioxolo[4,5-h][1,2,4]triazolo [1,5-c]quinazolin-8-yl)ethyl]-1-(cyclopropylmethyl)piperazin-2-one] returned a Ki of 0.8 nM.

For the compound `CC1CCN(CCc2nc3c4ccc5c(c4nc(N)n3n2)OC(F)(F)O5)CC1` [Example 38, 2,2-difluoro-8-[2-(4-methylpiperidin-1-yl)ethyl][1,3]dioxolo[4,5-h][1,2,4]triazolo[1,5-c]quinazolin-5-amine], the Ki was found to be 27 nM.

Turning to `Cc1ncc(CN(CCc2nc3c4ccc5c(c4nc(N)n3n2)OC(F)(F)O5)CC2CC2)s1` [Example 61, 8-(2-{(cyclopropylmethyl)[(2-methyl-1,3-thiazol-5-yl)methyl]amino}ethyl)-2,2-difluoro[1,3]dioxolo[4,5-h][1,2,4]triazolo[1,5-c]quinazolin-5-amine], the affinity corresponds to a Ki of 1.5 nM.

Compound `Nc1nc2c3c(ccc2c2nc(CCN4CC[C@H](c5ccccc5)C4)nn12)OC(F)(F)O3` [Example 37, 2,2-difluoro-8-{2-[(3R)-3-phenylpyrrolidin-1-yl]ethyl}[1,3]dioxolo[4,5-h][1,2,4]triazolo[1,5-c]quinazolin-5-amine] had a Ki of 20 nM.

In the case of `C[C@@H](Cc1nc2c3ccc4c(c3nc(N)n2n1)OC(F)(F)O4)N1CCCC(C)(F)C1` (single isomer, unassigned) [Example 90, 2,2-difluoro-8-{(2S)-2-[(3R or 3S)-3-fluoro-3-methylpiperidin-1-yl]propyl}[1,3] dioxolo[4,5-h] [1,2,4]triazolo[1,5-c]quinazolin-5-amine], the affinity, expressed as Ki, was 12 nM.

`Nc1nc2c3c(ccc2c2nc(CCN4C[C@H](F)[C@@H](F)C4)nn12)OC(F)(F)O3` [Example 23, 8-{2-[(3S,4S)-3,4-difluoropyrrolidin-1-yl]ethyl}-2,2-difluoro[1,3]dioxolo[4,5-h][1,2,4]triazolo[1,5-c]quinazolin-5-amine] gave a Ki of 1.6 nM.

In turn, `C[C@H](Cc1nc2c3ccc4c(c3nc(N)n2n1)OC(F)(F)O4)N1CCc2ccncc2C1` [Example 77, 8-[(2R)-2-(3,4-dihydro-2,7-naphthyridin-2(1H)-yl)propyl]-2,2-difluoro[1,3]dioxolo[4,5-h] [1,2,4]triazolo[1,5-c]quinazolin-5-amine] gave a Ki of 3.9 nM.

`Nc1nc2c3c(ccc2c2nc(C4CCCN(c5cc(F)cc(F)c5)C4)nn12)OC(F)(F)O3` (single isomer, unassigned) [Example 145, (R or S)-8-[1-(3,5-difluorophenyl)piperidin-3-yl]-2,2-difluoro[1,3] dioxolo[4,5-h][1,2,4]triazolo[1,5-c]quinazolin-5-amine] had a Ki of 140 nM.
